Test results from patent US11180474B2 (BRISTOL-MYERS SQUIBB COMPANY, priority 2016, dated 2021).

biological target: T1, human TLR9 (Homo sapiens, UniProt Q9NR96); assay: TLR9 inhibition reporter assay (HEK-Blue cells, SEAP reporter, ODN2006 stimulation); type: cell-based; settings: HEK-Blue cells overexpressing human TLR9, ODN2006 5 nM
T1 construct: host or cells: HEK-Blue cells
T1 sequence (Q9NR96 26-1032): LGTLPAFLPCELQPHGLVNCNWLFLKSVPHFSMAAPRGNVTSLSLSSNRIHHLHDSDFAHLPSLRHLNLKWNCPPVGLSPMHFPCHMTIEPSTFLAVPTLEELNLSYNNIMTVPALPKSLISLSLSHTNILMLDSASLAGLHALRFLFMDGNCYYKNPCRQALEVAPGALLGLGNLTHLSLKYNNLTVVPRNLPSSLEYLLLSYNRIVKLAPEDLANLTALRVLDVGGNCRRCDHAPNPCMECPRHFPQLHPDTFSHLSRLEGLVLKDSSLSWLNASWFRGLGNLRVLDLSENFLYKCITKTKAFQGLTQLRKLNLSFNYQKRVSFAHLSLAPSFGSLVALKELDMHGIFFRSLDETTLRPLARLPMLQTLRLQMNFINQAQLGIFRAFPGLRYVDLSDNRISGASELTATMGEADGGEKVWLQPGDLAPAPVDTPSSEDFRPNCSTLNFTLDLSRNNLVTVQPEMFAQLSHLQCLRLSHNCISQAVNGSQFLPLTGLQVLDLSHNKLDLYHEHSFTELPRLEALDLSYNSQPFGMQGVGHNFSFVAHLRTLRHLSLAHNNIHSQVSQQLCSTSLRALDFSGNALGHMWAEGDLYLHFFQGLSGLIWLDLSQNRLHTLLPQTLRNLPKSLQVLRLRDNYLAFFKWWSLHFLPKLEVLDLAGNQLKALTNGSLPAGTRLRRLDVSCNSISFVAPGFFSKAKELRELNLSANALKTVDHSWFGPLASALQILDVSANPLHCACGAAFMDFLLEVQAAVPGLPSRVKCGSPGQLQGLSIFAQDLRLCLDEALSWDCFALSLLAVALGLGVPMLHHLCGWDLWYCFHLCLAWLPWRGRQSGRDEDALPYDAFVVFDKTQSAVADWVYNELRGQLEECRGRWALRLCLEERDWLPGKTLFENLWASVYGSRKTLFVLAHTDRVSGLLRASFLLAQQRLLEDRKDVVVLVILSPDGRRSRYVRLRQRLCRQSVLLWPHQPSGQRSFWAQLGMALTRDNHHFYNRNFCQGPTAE
Summary of the method: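 Dose–response from 0.05 nM to 50 μM was run in HEK-Blue human TLR7, TLR8 and TLR9 reporter cells. After 30 min at room temperature with compound, ligand was added (TLR7 gardiquimod 7.5 μM; TLR8 R848 15.9 μM; TLR9 ODN2006 5 nM) and SEAP measured next day, at 22 h.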

Question: `COc1ccc(-c2[nH]c3ccc(C4CCN(CC(=O)NCCCCN5CCCC5)CC4)cc3c2CC(F)(F)F)cc1OC` [Example 388, 2-(4-(2-(3,4-dimethoxyphenyl)-3-(2,2,2-trifluoroethyl)-1H-indol-5-yl)piperidin-1-yl)-N-(4-(pyrrolidin-1-yl)butyl)acetamide] was tested. Which IC50 did it give?
Answer: The IC50 was 0.288 µM.

Question: Which IC50 does the source give for `COc1ccc(-c2[nH]c3ccc(C4CCN(C(=O)CN(C)C)CC4)cc3c2C(O)C(F)(F)F)cc1OC` (centres unmarked) [Example 395, 1-(4-(2-(3,4-dimethoxyphenyl)-3-(2,2,2-trifluoro-1-hydroxyethyl)-1H-indol-5-yl)piperidin-1-yl)-2-(dimethylamino)ethan-1-one] here?
Answer: Its IC50 is 13.2 µM.

Question: `COc1ccc(-c2[nH]c3ccc(C4CCN(C(=O)CCCN(C)C)CC4)cc3c2CC(F)(F)F)cc1OC` [Example 351, 1-(4-(2-(3,4-dimethoxyphenyl)-3-(2,2,2-trifluoroethyl)-1H-indol-5-yl)piperidin-1-yl)-4-(dimethylamino)butan-1-one] was tested. Which IC50 did it give?
Answer: The IC50 was 1.56 µM.

Question: For `COc1ccc(-c2[nH]c3ccc(C4CCN(CC(=O)N5CC[C@H](N(C)C)C5)CC4)cc3c2CC(F)(F)F)cc1OC` [Example 374, (S)-2-(4-(2-(3,4-dimethoxyphenyl)-3-(2,2,2-trifluoroethyl)-1H-indol-5-yl)piperidin-1-yl)-1-(3-(dimethylamino)pyrrolidin-1-yl) ethan-1-one], which IC50 is on record?
Answer: The IC50 was 0.252 µM.

Question: For `CCN(CC)C(=O)C1CCCN(CC(=O)N2CCC(c3ccc4[nH]c(-c5ccc(OC)c(OC)c5)c(C5CCOCC5)c4c3)CC2)C1` (centres unmarked) [Example 391, 1-(2-(4-(2-(3,4-dimethoxyphenyl)-3-(tetrahydro-2H-pyran-4-yl)-1H-indol-5-yl)piperidin-1-yl)-2-oxoethyl)-N,N-diethylpiperidine-3-carboxamide], which IC50 is on record?
Answer: Its IC50 is 5.4 µM.

Question: `COc1ccc(-c2[nH]c3ccc(C4CCN(CC(=O)NCCNC(C)=O)CC4)cc3c2CC(F)(F)F)cc1OC` [Example 379, N-(2-acetamidoethyl)-2-(4-(2-(3,4-dimethoxyphenyl)-3-(2,2,2-trifluoroethyl)-1H-indol-5-yl)piperidin-1-yl)acetamide] was tested. Which IC50 did it give?
Answer: The IC50 was 4.23 µM.

Question: How did the IC50 turn out when `COc1ccc(-c2[nH]c3ccc(C4CCNCC4(F)F)cc3c2C(C)C)cc1OC` (centres unmarked) [Example 325, 5-(3,3-difluoropiperidin-4-yl)-2-(3,4-dimethoxyphenyl)-3-isopropyl-1H-indole] was run?
Answer: The IC50 was no less than 50 µM.

Question: For `COc1ccc(-c2[nH]c3ccc(C4CCN(C(=O)COc5cccnc5)CC4)cc3c2CC(F)(F)F)cc1OC` [Example 349, 1-(4-(2-(3,4-dimethoxyphenyl)-3-(2,2,2-trifluoroethyl)-1H-indol-5-yl)piperidin-1-yl)-2-(pyridin-3-yloxy)ethan-1-one], which IC50 is on record?
Answer: Its IC50 is 9.73 µM.

Question: `CCN(CC)C(=O)C1CCCN(CC(=O)N2CCC(c3ccc4[nH]c(-c5ccc(OC)c(OC)c5)c(C)c4c3)CC2)C1` (centres unmarked) [Example 404, 1-(2-(4-(2-(3,4-dimethoxyphenyl)-3-methyl-1H-indol-5-yl)piperidin-1-yl)-2-oxoethyl)-N,N-diethylpiperidine-3-carboxamide] was tested. Which IC50 did it give?
Answer: Its IC50 is 8.64 µM.

Question: For `COc1ccc(-c2[nH]c3ccc(C4CCN(C(=O)C[C@H](C)O)CC4)cc3c2CC(F)(F)F)cc1OC` [Example 352, (S)-1-(4-(2-(3,4-dimethoxyphenyl)-3-(2,2,2-trifluoroethyl)-1H-indol-5-yl)piperidin-1-yl)-3-hydroxybutan-1-one], which IC50 is on record?
Answer: Its IC50 is 28.9 µM.

Question: With `COc1ccc(-c2[nH]c3ccc(C4CCN(C(=O)Cc5c[nH]c6ccccc56)CC4)cc3c2CC(F)(F)F)cc1OC` [Example 332, 1-(4-(2-(3,4-dimethoxyphenyl)-3-(2,2,2-trifluoroethyl)-1H-indol-5-yl)piperidin-1-yl)-2-(1H-indol-3-yl)ethan-1-one] as the compound, how does the IC50 read?
Answer: Its IC50 is no less than 50 µM.

Question: How did the IC50 turn out when `COc1ccc(-c2[nH]c3ccc(C4CCN(C(=O)CNC[C@@H](O)CO)CC4)cc3c2C)cc1OC` [Example 405, (R)-2-((2,3-dihydroxypropyl)amino)-1-(4-(2-(3,4-dimethoxyphenyl)-3-methyl-1H-indol-5-yl)piperidin-1-yl)ethan-1-one] was run?
Answer: The IC50 was 13.5 µM.

Question: With `COc1ccc(-c2[nH]c3ccc(C4CCN(C(=O)CS(C)(=O)=O)CC4)cc3c2CC(F)(F)F)cc1OC` [Example 347, 1-(4-(2-(3,4-dimethoxyphenyl)-3-(2,2,2-trifluoroethyl)-1H-indol-5-yl)piperidin-1-yl)-2-(methylsulfonyl)ethan-1-one] as the compound, how does the IC50 read?
Answer: The IC50 was 39.1 µM.

Question: `COc1ccc(-c2[nH]c3ccc(C4CCN(C(=O)Cc5c[nH]cn5)CC4)cc3c2CC(F)(F)F)cc1OC` [Example 334, 1-(4-(2-(3,4-dimethoxyphenyl)-3-(2,2,2-trifluoroethyl)-1H-indol-5-yl)piperidin-1-yl)-2-(1H-imidazol-4-yl)ethan-1-one] was tested. Which IC50 did it give?
Answer: Its IC50 is 7.77 µM.

Question: With `COc1ccc(-c2[nH]c3ccc(C4CCN(C(=O)Cc5nnn[nH]5)CC4)cc3c2CC(F)(F)F)cc1OC` [Example 341, 1-(4-(2-(3,4-dimethoxyphenyl)-3-(2,2,2-trifluoroethyl)-1H-indol-5-yl)piperidin-1-yl)-2-(1H-tetrazol-5-yl)ethan-1-one] as the compound, how does the IC50 read?
Answer: Its IC50 is no less than 50 µM.

Question: `COc1ccc(-c2[nH]c3ccc(C4CCN(CC(=O)N5CCC(C(N)=O)CC5)CC4)cc3c2CC(F)(F)F)cc1OC` [Example 369, 1-(2-(4-(2-(3,4-dimethoxyphenyl)-3-(2,2,2-trifluoroethyl)-1H-indol-5-yl)piperidin-1-yl)acetyl)piperidine-4-carboxamide] was tested. Which IC50 did it give?
Answer: The IC50 was 1.95 µM.

Question: With `COc1ccc(-c2[nH]c3ccc(C4CCN(CC(=O)N5CCC(N6CCCCC6)CC5)CC4)cc3c2CC(F)(F)F)cc1OC` [Example 359, 1-([1,4′-bipiperidin]-1′-yl)-2-(4-(2-(3,4-dimethoxyphenyl)-3-(2,2,2-trifluoroethyl)-1H-indol-5-yl)piperidin-1-yl)ethan-1-one] as the compound, how does the IC50 read?
Answer: Its IC50 is 0.267 µM.

Question: For `COc1ccc(-c2[nH]c3ccc(C4CCNCC4F)cc3c2C(C)C)cc1OC` (single isomer, unassigned) [Example 321, 2-(3,4-dimethoxyphenyl)-5-(3-fluoropiperidin-4-yl)-3-isopropyl-1H-indole], which IC50 is on record?
Answer: The IC50 was 4.5 µM.

Question: For `COc1ccc(-c2[nH]c3ccc(C4CCN(CC(=O)NCCCN5CCCC5=O)CC4)cc3c2CC(F)(F)F)cc1OC` [Example 376, 2-(4-(2-(3,4-dimethoxyphenyl)-3-(2,2,2-trifluoroethyl)-1H-indol-5-yl)piperidin-1-yl)-N-(3-(2-oxopyrrolidin-1-yl)propyl)acetamide], which IC50 is on record?
Answer: Its IC50 is 2.9 µM.

Question: With `CNC(=O)CN1CCC(c2ccc3[nH]c(-c4ccc(OC)c(OC)c4)c(CC(F)F)c3c2)CC1` [Example 401, 2-(4-(3-(2,2-difluoroethyl)-2-(3,4-dimethoxyphenyl)-1H-indol-5-yl)piperidin-1-yl)-N-methylacetamide] as the compound, how does the IC50 read?
Answer: Its IC50 is 5.29 µM.

Question: `COc1ccc(-c2[nH]c3ccc(C4CCN(C(=O)CCc5cccnc5)CC4)cc3c2CC(F)(F)F)cc1OC` [Example 348, 1-(4-(2-(3,4-dimethoxyphenyl)-3-(2,2,2-trifluoroethyl)-1H-indol-5-yl)piperidin-1-yl)-3-(pyridin-3-yl) propan-1-one] was tested. Which IC50 did it give?
Answer: The IC50 was 15.3 µM.

Question: For `COc1ccc(-c2[nH]c3ccc(C4CCN(C(=O)CN(C)C)CC4)cc3c2C)cc1OC` [Example 402, 1-(4-(2-(3,4-dimethoxyphenyl)-3-methyl-1H-indol-5-yl)piperidin-1-yl)-2-(dimethylamino)ethan-1-one], which IC50 is on record?
Answer: Its IC50 is 5.82 µM.

Question: For `COc1ccc(-c2[nH]c3ccc(C4CCN(C(=O)NCCc5ccccc5)CC4)cc3c2CC(F)(F)F)cc1OC` [Example 357, 4-(2-(3,4-dimethoxyphenyl)-3-(2,2,2-trifluoroethyl)-1H-indol-5-yl)-N-phenethylpiperidine-1-carboxamide], which IC50 is on record?
Answer: Its IC50 is no less than 50 µM.

Question: With `COc1ccc(-c2[nH]c3ccc(C4CCN(CC(=O)N5CC[C@@H](N(C)C)C5)CC4)cc3c2CC(F)(F)F)cc1OC` [Example 373, (R)-2-(4-(2-(3,4-dimethoxyphenyl)-3-(2,2,2-trifluoroethyl)-1H-indol-5-yl)piperidin-1-yl)-1-(3-(dimethylamino)pyrrolidin-1-yl)ethan-1-one] as the compound, how does the IC50 read?
Answer: The IC50 was 0.37 µM.

Question: With `COc1ccc(-c2[nH]c3ccc(C4CCN(CC(=O)NCCc5ccc(S(N)(=O)=O)cc5)CC4)cc3c2CC(F)(F)F)cc1OC` [Example 384, 2-(4-(2-(3,4-dimethoxyphenyl)-3-(2,2,2-trifluoroethyl)-1H-indol-5-yl)piperidin-1-yl)-N-(4-sulfamoylphenethyl)acetamide] as the compound, how does the IC50 read?
Answer: The IC50 was 2.31 µM.

Question: With `COc1ccc(-c2[nH]c3ccc(C4CCNCC4F)cc3c2C(C)C)cc1OC` (single isomer, unassigned) [Example 322, 2-(3,4-dimethoxyphenyl)-5-(3-fluoropiperidin-4-yl)-3-isopropyl-1H-indole] as the compound, how does the IC50 read?
Answer: The IC50 was 2.79 µM.
